Consider 22 compounds from patent US10647713B2 (Nimbus Lakshmi, Inc., priority 2016, dated 2020).

As a reminder, the Kd is the free concentration of one partner at which half of the binding sites on the other are occupied at equilibrium, for simple one-to-one binding.

Some results are limits rather than exact numbers.

Chain of human TYK2 (JH2domain-pseudokinase) (P29597 556-888): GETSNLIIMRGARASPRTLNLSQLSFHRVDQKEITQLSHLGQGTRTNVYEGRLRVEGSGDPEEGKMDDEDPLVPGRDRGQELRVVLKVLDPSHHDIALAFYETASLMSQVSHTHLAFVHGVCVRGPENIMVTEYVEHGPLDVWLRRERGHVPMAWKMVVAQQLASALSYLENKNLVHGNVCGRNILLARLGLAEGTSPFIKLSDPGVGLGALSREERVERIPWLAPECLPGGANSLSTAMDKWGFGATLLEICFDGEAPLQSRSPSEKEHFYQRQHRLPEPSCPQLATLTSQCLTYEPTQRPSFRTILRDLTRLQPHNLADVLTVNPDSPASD

This test addresses human TYK2 (JH2domain-pseudokinase) (Homo sapiens (Human), UniProt P29597). The test can be described thus: TYK2 JH2 Domain Binding Assay (KINOMEscan, DiscoveRx). Particulars: 11-point dilution, duplicate. The protocol:
Binding constants for compounds of the present invention against the JH2 domain were determined by the following protocol for a KINOMEscan® assay (DiscoveRx). A fusion protein of a partial length construct of human TYK2 (JH2domain-pseudokinase) (amino acids G556 to D888 based on reference sequence NP_003322.3) and the DNA binding domain of NFkB was expressed in transiently transfected HEK293 cells. From these HEK 293 cells, extracts were prepared in M-PER extraction buffer (Pierce) in the presence of Protease Inhibitor Cocktail Complete (Roche) and Phosphatase Inhibitor Cocktail Set II (Merck) per manufacturers' instructions. The TYK2 (JH2domain-pseudokinase) fusion protein was labeled with a chimeric double-stranded DNA tag containing the NFkB binding site (5′-GGGAATTCCC-3′) fused to an amplicon for qPCR readout, which was added directly to the expression extract (the final concentration of DNA-tag in the binding reaction is 0.1 nM).
Streptavidin-coated magnetic beads (Dynal M280) were treated with a biotinylated small molecule ligand for 30 minutes at room temperature to generate affinity resins the binding assays. The liganded beads were blocked with excess biotin and washed with blocking buffer (SeaBlock (Pierce), 1% BSA, 0.05% Tween 20, 1 mM DTT) to remove unbound ligand and to reduce nonspecific binding.
The binding reaction was assembled by combining 16 μl of DNA-tagged kinase extract, 3.8 μl liganded affinity beads, and 0.18 μl test compound (PBS/0.05% Tween 20/10 mM DTT/0.1% BSA/2 μg/ml sonicated salmon sperm DNA)]. Extracts were used directly in binding assays without any enzyme purification steps at a ≥10,000-fold overall stock dilution (final DNA-tagged enzyme concentration <0.1 nM). Extracts were loaded with DNA-tag and diluted into the binding reaction in a two step process. First extracts were diluted 1:100 in 1× binding buffer (PBS/0.05% Tween 20/10 mM DTT/0.1% BSA/2 μg/ml sonicated salmon sperm DNA) containing 10 nM DNA-tag. This dilution was allowed to equilibrate at room temperature for 15 minutes and then subsequently diluted 1:100 in 1× binding buffer. Test compounds were prepared as 111× stocks in 100% DMSO. Kds were determined using an 11-point 3-fold compound dilution series with three DMSO control points. All compounds for Kd measurements are distributed by acoustic transfer (non-contact dispensing) in 100% DMSO. The compounds were then diluted directly into the assays such that the final concentration of DMSO was 0.9%. All reactions performed in polypropylene 384-well plates. Each was a final volume of 0.02 mL. Assays were incubated with shaking for 1 hour at room temperature. Then the beads were pelleted and washed with wash buffer (1×PBS, 0.05% Tween 20) to remove displaced kinase and test compound. The washed based were re-suspended in elution buffer (1×PBS, 0.05% Tween 20, 0.5 μM non-biotinylated affinity ligand) and incubated at room temperature with shaking for 30 minutes. The kinase concentration in the eluates was measured by qPCR. qPCR reactions were assembled by adding 2.5 μL of kinase eluate to 7.5 μL of qPCR master mix containing 0.15 μM amplicon primers and 0.15 μM amplicon probe. The qPCR protocol consisted of a 10 minute hot start at 95° C., followed by 35 cycles of 95° C. for 15 seconds, 60° C. for 1 minute.
Test compounds were prepared as 111× stocks in 100% DMSO. Kds were determined using an 11-point 3-fold compound dilution series with three DMSO control points. All compounds for Kd measurements are distributed by acoustic transfer (non-contact dispensing) in 100% DMSO. The compounds were then diluted directly into the assays such that the final concentration of DMSO was 0.9%. The Kds were determined using a compound top concentration of 30,000 nM. Kd measurements were performed in duplicate.
Binding constants (Kds) were calculated with a standard dose-response curve using the Hill equation: […]
The Hill Slope was set to −1. […]
For the compound `CN(c1cc(-c2cnn(C)c2)ccc1Nc1cc(NC(=O)[C@@H]2C[C@@H]2F)nc2[nH]c(C(F)F)nc12)S(C)(=O)=O` (stereo in doubt) [Compound I-207], the Kd was 0.1 to 0.5 nM.
Turning to `COc1c(Nc2cc(NC(=O)[C@@H]3C[C@@H]3F)nc3[nH]c(C(F)F)nc23)cccc1-c1ncn(C)n1` (stereo in doubt) [I-213, N-(2-(difluoromethyl)-7-((2-methoxy-3-(1-methyl-1H-1,2,4-triazol-3-yl)phenyl)amino)-3H-imidazo[4,5-b]pyridin-5-yl)-2-fluorocyclopropane-1-carboxamide], the Kd was 0.1 to 0.5 nM.
In turn, `CN(c1cc(-c2cnn(C)c2)ccc1Nc1cc(NC(=O)[C@@H]2C[C@@H]2F)nc2[nH]c(C(F)F)nc12)S(C)(=O)=O` (stereo in doubt) [I-235, (1S,2S)—N-(2-(difluoromethyl)-7-((4-(1-methyl-1H-pyrazol-4-yl)-2-(N-methylmethylsulfonamido)phenyl)amino)-3H-imidazo[4,5-b]pyridin-5-yl)-2-fluorocyclopropane-1-carboxamide] had a Kd of less than 0.1 nM.
`Cc1nc2c(Nc3ccc(C4CCCOC4)cc3S(C)(=O)=O)cc(NC(=O)C3CC3)nc2[nH]1` (stereo in doubt) [I-254, (R)—N-(2-methyl-7-((2-(methylsulfonyl)-4-(tetrahydro-2H-pyran-3-yl)phenyl)amino)-3H-imidazo[4,5-b]pyridin-5-yl)cyclopropanecarboxamide] displayed a Kd of 0.5 to 1 nM.
The result for `Cc1nc2c(Nc3ccc([C@@H]4CCCCO4)cc3S(C)(=O)=O)cc(NC(=O)[C@@H]3CC3(F)F)nc2[nH]1` (stereo in doubt) [I-324, 2,2-difluoro-N-(2-methyl-7-((2-(methylsulfonyl)-4-((R)-tetrahydro-2H-pyran-2-yl)phenyl)amino)-3H-imidazo[4,5-b]pyridin-5-yl)cyclopropane-1-carboxamide] reads 1 to 10 nM; that for `COc1c(Nc2cc(NC(=O)C3C[C@@H]3F)nc3[nH]c(C)nc23)cccc1-c1ncn(C)n1` (stereo in doubt) [I-368, 2-fluoro-N-(7-((2-methoxy-3-(1-methyl-1H-1,2,4-triazol-3-yl)phenyl)amino)-2-methyl-3H-imidazo[4,5-b]pyridin-5-yl)cyclopropane-1-carboxamide], 0.5 to 1 nM; that for `COc1c(Nc2cc(NC(=O)C3C[C@@H]3F)nc3[nH]c(C(F)F)nc23)cccc1-c1ncn(C)n1` (stereo in doubt) [I-374, N-(2-(difluoromethyl)-7-((2-methoxy-3-(1-methyl-1H-1,2,4-triazol-3-yl)phenyl)amino)-3H-imidazo[4,5-b]pyridin-5-yl)-2-fluorocyclopropane-1-carboxamide], 1 to 10 nM.
The result for `CN=S(C)(=O)c1ccccc1Nc1cc(NC(=O)C2CC2)nc2[nH]c(C)nc12` (stereo in doubt) [I-548, (S)—N-(7-((2-(N,S-dimethylsulfonimidoyl)phenyl)amino)-2-methyl-3H-imidazo[4,5-b]pyridin-5-yl)cyclopropanecarboxamide] reads 0.1 to 0.5 nM; that for `Cc1nc2c(Nc3ccc(C4CCCCO4)cc3S(C)(=O)=O)cc(Nc3cc4n(n3)CCOC4)nc2[nH]1` (stereo in doubt) [I-586, (R)—N5-(6,7-dihydro-4H-pyrazolo[5,1-c][1,4]oxazin-2-yl)-2-methyl-N7-(2-(methylsulfonyl)-4-(tetrahydro-2H-pyran-2-yl)phenyl)-3H-imidazo[4,5-b]pyridine-5,7-diamine], 0.1 to 0.5 nM.
The compound `CS(=O)(=O)c1cc(C2COCCO2)ccc1Nc1cc(NC(=O)C2CC2)nc2[nH]c(C(F)F)nc12` (stereo in doubt) [I-613, (R)—N-(7-((4-(1,4-dioxan-2-yl)-2-(methylsulfonyl)phenyl)amino)-2-(difluoromethyl)-3H-imidazo[4,5-b]pyridin-5-yl)cyclopropanecarboxamide] registered a Kd of 0.1 to 0.5 nM.
As for `CS(=O)(=O)c1cc(C2COCCO2)ccc1Nc1cc(NC(=O)C2CC2)nc2[nH]c(C(F)F)nc12` (stereo in doubt) [I-614, (S)—N-(7-((4-(1,4-dioxan-2-yl)-2-(methylsulfonyl)phenyl)amino)-2-(difluoromethyl)-3H-imidazo[4,5-b]pyridin-5-yl)cyclopropanecarboxamide], the Kd lay within 0.1 to 0.5 nM.
Consider `COc1c(Nc2cc(NC(=O)C3CC3)nc3[nH]cnc23)cccc1-c1ncn(C)n1` [I-1, N-(7-((2-methoxy-3-(1-methyl-1H-1,2,4-triazol-3-yl)phenyl)amino)-3H-imidazo[4,5-b]pyridin-5-yl)cyclopropanecarboxamide], for which the Kd is 0.1 to 0.5 nM.
`COc1c(Nc2cc(Nc3cc(C)c(F)cn3)nc3[nH]cnc23)cccc1-c1ncn(C)n1` [I-2, N5-(5-fluoro-4-methylpyridin-2-yl)-N7-(2-methoxy-3-(1-methyl-1H-1,2,4-triazol-3-yl)phenyl)-3H-imidazo[4,5-b]pyridine-5,7-diamine] came in with a Kd of 0.5 to 1 nM.
As to `COc1c(Nc2cc(Nc3cc(C)nc(C)n3)nc3[nH]cnc23)cccc1-c1ncn(C)n1` [I-3, N5-(2,6-dimethylpyrimidin-4-yl)-N7-(2-methoxy-3-(1-methyl-1H-1,2,4-triazol-3-yl)phenyl)-3H-imidazo[4,5-b]pyridine-5,7-diamine], the Kd is 0.1 to 0.5 nM.
The result for `COc1c(Nc2cc(Nc3ccc(C)nn3)nc3[nH]cnc23)cccc1-c1ncn(C)n1` [I-4, N7-(2-methoxy-3-(1-methyl-1H-1,2,4-triazol-3-yl)phenyl)-N5-(6-methylpyridazin-3-yl)-3H-imidazo[4,5-b]pyridine-5,7-diamine] reads 0.1 to 0.5 nM.
Turning to `COc1c(Nc2cc(Nc3cc(CO)ccn3)nc3[nH]cnc23)cccc1-c1ncn(C)n1` [I-5, (2-((7-((2-methoxy-3-(1-methyl-1H-1,2,4-triazol-3-yl)phenyl)amino)-3H-imidazo[4,5-b]pyridin-5-yl)amino)pyridin-4-yl)MeOH], the Kd lay within 0.5 to 1 nM.
For `COc1c(Nc2cc(Nc3ccc(N4CCCCC4)cn3)nc3[nH]cnc23)cccc1-c1ncn(C)n1` [I-6, N7-(2-methoxy-3-(1-methyl-1H-1,2,4-triazol-3-yl)phenyl)-N5-(5-(piperidin-1-yl)pyridin-2-yl)-3H-imidazo[4,5-b]pyridine-5,7-diamine], the Kd lay in the range of 0.5 to 1 nM.
`COc1c(Nc2cc(Nc3ccc(N4CCOCC4)cn3)nc3[nH]cnc23)cccc1-c1ncn(C)n1` [I-7, N7-(2-methoxy-3-(1-methyl-1H-1,2,4-triazol-3-yl)phenyl)-N5-(5-morpholinopyridin-2-yl)-3H-imidazo[4,5-b]pyridine-5,7-diamine] displayed a Kd of 0.1 to 0.5 nM.
On to `COc1c(Nc2cc(Nc3ccn(C)n3)nc3[nH]cnc23)cccc1-c1ncn(C)n1` [I-8, N7-(2-methoxy-3-(1-methyl-1H-1,2,4-triazol-3-yl)phenyl)-N5-(1-methyl-1H-pyrazol-3-yl)-3H-imidazo[4,5-b]pyridine-5,7-diamine], for which the Kd was in the range of 1 to 10 nM.
The compound `COc1c(Nc2cc(NC(=O)C3CC3)nc3[nH]c(C4CC4)nc23)cccc1-c1ncn(C)n1` [I-9, N-(2-cyclopropyl-7-((2-methoxy-3-(1-methyl-1H-1,2,4-triazol-3-yl)phenyl)amino)-3H-imidazo[4,5-b]pyridin-5-yl)cyclopropanecarboxamide] displayed a Kd greater than 10 nM.
For the compound `COc1c(Nc2cc(NC(=O)C3CC3)nc3[nH]c(CO)nc23)cccc1-c1ncn(C)n1` [I-10, N-(2-(hydroxymethyl)-7-((2-methoxy-3-(1-methyl-1H-1,2,4-triazol-3-yl)phenyl)amino)-3H-imidazo[4,5-b]pyridin-5-yl)cyclopropanecarboxamide], the Kd lay in the range of 1 to 10 nM.
Consider `COc1nc2c(Nc3cccc(-c4ncn(C)n4)c3OC)cc(NC(=O)C3CC3)nc2[nH]1` [I-11], for which the Kd was 1 to 10 nM.
